# In paper PMC6657216, “Defining the Contribution of CYP1A1 and CYP1A2 to Drug Metabolism Using Humanized CYP1A1/1A2 and Cyp1a1/Cyp1a2 Knockout Mice” (Drug Metabolism and Disposition, 2019):
# Several values for one entry are separate records, joined by “and”; a condition that tells them apart may be missing. Equal entries are not always repeated. Where two headings read alike, the source gives them in different places.
# Assays:
# [1] = test system: liver microsomes from TCDD-treated hCYP1A1/1A2 mice; assay: EROD in liver microsomes from TCDD-treated hCYP1A1/1A2 mice: individual contribution of CYP1A1, CYP1A2 and non-Cyp1a; format: in vitro ADME, mouse
# Method: (§2) Protein enzyme/concentrations were 3.46 pmol/ml for recombinant human CYP1A1, 10.8 pmol/ml for recombinant human CYP1A2, 0.05 mg protein/ml for liver microsomes from TCDD-treated hCYP1A1/1A2 mice, and 0.25 mg protein/ml for liver microsomes from TCDD-treated Cyp1 KO mice and vehicle-treated hCYP1A1/1A2 mice. Where needed, total protein concentration in the reaction mixtures was adjusted using Control Bactosomes (Cypex), so all reactions (including those with the recombinant cytochrome P450s) were carried out at a total protein concentration of 0.25 mg protein/ml. Generation of fluorescent product was registered in a kinetic mode (excitation filter, 530 nm; emission filter, 584 nm). Slopes of the linear part of the kinetic curves were calculated using Ascent Software version 2.4.1 (Labsystems). For each well with the reaction medium, there was a control well containing the reaction mixture with resorufin (40 pmol). Before addition of NADPH to the reaction wells, fluorescence was recorded both from the reaction and from the control wells. The average fluorescence was calculated, and the difference between wells with and without resorufin was used for the conversion of the relative fluorescence units to the picomoles of the reaction product.
# Recombinant rat CYP1A1 = test system: Recombinant rat CYP1A1; parameters: method as in Namkung et al., 1988; settings: recombinant rat enzymes; ref Namkung et al., 1988; cited from earlier work
# liver microsomes = assay: Constitutive EROD and MROD activity in liver microsomes of WT, Cyp1a KO and hCYP1A1/1A2 mice; format: in vitro ADME, mouse
# Method: (§1) A mixture of ER (0.93 μM) or MR (0.46 μM) and liver microsomes (0.004–0.27 mg protein/ml) in 100 mM potassium phosphate buffer (pH 7.4) supplemented with MgCl2 (3.3 mM) was incubated at 37°C for 5 minutes before the reaction was initiated by injection of NADPH (final concentration, 1.2 mM). […] Activities in duodenum, ileum, jejunum, colon, lung, kidney, spleen, heart, brain, and testis microsomes were measured as described earlier except for the following adjustments: MR concentration was 1 μM, concentration of total microsomal protein in the reaction was in the range of 0.07–0.43 mg/ml, and amount of resorufin added to calculate the reaction product concentration was 40 pmol.
# [2] = test system: liver microsomes from TCDD-treated Cyp1a KO mice (non-Cyp1a component); assay: EROD in liver microsomes from TCDD-treated Cyp1a KO mice with and without quinidine
# Method: as §2
# recombinant human CYP1A1 [3] = target: T1, recombinant human CYP1A1 (Homo sapiens, UniProt P04798); parameters: host or cells: bacteria (membrane / 'bacterial microsomes' preparation); method as in Liu et al., 2004; settings: recombinant human enzymes; ref Liu et al., 2004; cited from earlier work
# T1 sequence (P04798 1-512): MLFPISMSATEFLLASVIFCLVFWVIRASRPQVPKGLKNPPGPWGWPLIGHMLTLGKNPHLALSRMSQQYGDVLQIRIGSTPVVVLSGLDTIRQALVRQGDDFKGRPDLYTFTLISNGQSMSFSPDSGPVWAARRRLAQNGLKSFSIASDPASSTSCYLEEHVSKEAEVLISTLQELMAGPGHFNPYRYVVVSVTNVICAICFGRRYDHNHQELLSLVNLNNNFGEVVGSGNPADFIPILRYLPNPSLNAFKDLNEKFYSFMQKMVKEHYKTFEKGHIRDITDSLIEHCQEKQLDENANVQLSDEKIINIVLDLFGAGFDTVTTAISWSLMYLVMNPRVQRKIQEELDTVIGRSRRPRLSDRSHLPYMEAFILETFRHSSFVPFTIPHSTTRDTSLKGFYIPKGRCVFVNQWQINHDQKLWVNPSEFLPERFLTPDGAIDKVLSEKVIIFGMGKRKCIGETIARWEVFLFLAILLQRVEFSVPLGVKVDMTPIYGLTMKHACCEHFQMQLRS
# recombinant human CYP1A2 [4] = target: T2, recombinant human CYP1A2 (Homo sapiens, UniProt P05177); settings: read-out: Km ± S.E.; EROD; rCYP1A2
# T2 sequence (P05177 1-516): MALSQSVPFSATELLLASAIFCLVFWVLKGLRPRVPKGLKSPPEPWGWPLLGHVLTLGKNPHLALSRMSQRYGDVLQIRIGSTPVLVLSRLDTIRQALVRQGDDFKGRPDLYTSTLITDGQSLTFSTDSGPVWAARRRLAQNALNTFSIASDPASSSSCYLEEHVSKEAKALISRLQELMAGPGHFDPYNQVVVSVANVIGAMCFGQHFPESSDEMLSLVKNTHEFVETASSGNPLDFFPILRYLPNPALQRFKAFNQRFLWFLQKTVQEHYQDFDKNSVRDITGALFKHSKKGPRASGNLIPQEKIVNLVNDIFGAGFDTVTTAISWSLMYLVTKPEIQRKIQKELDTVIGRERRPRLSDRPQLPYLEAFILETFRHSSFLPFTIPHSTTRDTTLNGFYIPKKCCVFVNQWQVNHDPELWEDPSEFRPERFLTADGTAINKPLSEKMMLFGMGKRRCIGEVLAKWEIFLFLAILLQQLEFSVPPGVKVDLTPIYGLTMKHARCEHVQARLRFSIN
# Method: as §2
# recombinant human CYP1A1 [5] = target: T1, recombinant human CYP1A1; assay: EROD by recombinant human CYP1A1 with and without quinidine; settings: for Kd: EROD, rCYP1A1
# Method: (§3) Where needed, total protein concentration in the reaction mixtures was adjusted using Control Bactosomes (Cypex), so all reactions (including those with the recombinant cytochrome P450s) were carried out at a total protein concentration of 0.25 mg protein/ml. […] Slopes of the linear part of the kinetic curves were calculated using Ascent Software version 2.4.1 (Labsystems). For each well with the reaction medium, there was a control well containing the reaction mixture with resorufin (40 pmol). Before addition of NADPH to the reaction wells, fluorescence was recorded both from the reaction and from the control wells. The average fluorescence was calculated, and the difference between wells with and without resorufin was used for the conversion of the relative fluorescence units to the picomoles of the reaction product.
# recombinant human CYP1A1 [6] = target: T1, recombinant human CYP1A1; assay: MROD by recombinant human CYP1A1, inhibition by quinidine
# Method: (§4) Slopes of the linear part of the kinetic curves were calculated using Ascent Software version 2.4.1 (Labsystems).
# as §3
# [7] = test system: liver microsomes from TCDD-treated Cyp1a KO mice (non-Cyp1a component); assay: MROD in liver microsomes from TCDD-treated Cyp1a KO mice with and without quinidine
# Method: as §2
# recombinant human CYP1A2 [8] = target: T2, recombinant human CYP1A2; assay: MROD by recombinant human CYP1A2, inhibition by quinidine; settings: MROD, rCYP1A2
# Method: as §4, §3
# [9] = test system: liver microsomes from TCDD-treated hCYP1A1/1A2 mice; assay: MROD in liver microsomes from TCDD-treated hCYP1A1/1A2 mice: individual contribution of CYP1A1, CYP1A2 and non-Cyp1a; format: in vitro ADME, mouse
# Method: as §2
# Cyp1a/CYP1A enzymes = assay: TCDD treatment of mice: hepatic total P450, EROD and MROD induction; format: in vivo, mouse; settings: for increase of total hepatic cytochrome P450: TCDD 10 µg/kg i.p., 48 hours
# Method: Mice were given a single intraperitoneal dose of TCDD (10 µg/kg) or vehicle control (corn oil) and then euthanized 48 hours after the dosing using a rising concentration of CO2.
# Microsomal fractions were prepared as previously described ([Henderson et al., 2019]). In brief, fresh liver samples were homogenized in ice-cold SET(Sucrose-EDTA-Tris) buffer (0.25 M sucrose, 5 mM EDTA, 20 mM Tris-HCL, pH 7.4; 9 ml buffer/g liver) and centrifuged at 2000 rpm (Sorvall RTH-250, 10 minutes, 4°C). The supernatant was centrifuged (12,000 rpm, Sorvall SS-34 rotor, 20 minutes, 4°C), the resulting supernatant was centrifuged (∼30,000 rpm, Sorvall TFT-45.6, 90 minutes, 4°C) (ThermoFisher Scientific, UK), and microsomal pellets were resuspended in ice-cold SET buffer and stored at −70°C.
# Microsomal protein concentration fractions were measured using a modification of a previously described method ([Lowry et al., 1951]) and total hepatic microsomal P450 as previously described ([Omura and Sato, 1964]).
# as §1
# [10] = Microsomal stability in mouse liver microsomes (WT, Cyp1a KO, hCYP1A1/1A2)
# Method: The reaction was started by addition of 200 μl of NADPH to the remaining mixture of ramelteon with microsomes, and 100-μl aliquots were taken at 1, 2, 5, 10, 15, 20, and 30 minutes after the reaction start; mixed with an equal volume of ice-cold methanol containing the internal standard; incubated on ice for at least 20 minutes; and centrifuged for 15 minutes at 16,000 rcf and +4°C on Centrifuge 5415 R (Eppendorf, Hamburg, Germany). Control incubations were carried out without the cofactor or microsomes. The concentration of ramelteon in the supernatant was measured by high-performance liquid chromatography–tandem mass spectrometry (MS/MS). Chromatographic separation was performed on a Prodigy Phenyl-3 column (5 μm, 50 × 2.0 mm; Phenomenex) using an injection volume of 10 μl and a run time of 7 minutes. Mobile phase consisted of 0.1% solutions of formic acid in water (solvent A) and acetonitrile (solvent B). For elution, a linear gradient from 20% to 60% of solvent B in 4 minutes was used, followed by 3-minute equilibration at 20% B. The multiple reaction monitoring parameters for ramelteon and tacrine were 260.28, 199.2 (precursor ion) and 204.21, 171.11 (product ion), respectively. The concentrations of ramelteon were calculated from the calibration curve.
# [11] = liver microsomes from TCDD-treated hCYP1A1/1A2 mice, nonlinear regression eq. 7
# [12] = quinidine 200 μM, low concentration of ER
# [13] = 200 μM quinidine, increased substrate concentration
# [14] = 200 μM quinidine, low concentrations of MR
# [15] = absence of inhibitor, low substrate concentrations
# [16] = liver microsomes from TCDD-treated hCYP1A1/1A2 mice, nonlinear regression eq. 8
# [17] = hCYP1A1/1A2 mice, liver microsomes
smiles,measurement,setting,value
"CCOc1ccc2nc3ccc(=O)cc-3oc2c1 [ER, 7-ethoxyresorufin]",CYP1A1 contribution to EROD,"[1]; absence of quinidine, 1 μM ER",70%
same,CYP1A2 contribution to EROD,"[1]; absence of quinidine, 6 μM ER",~45%
same,CYP1A1 contribution to EROD,"[1]; absence of quinidine, 6 μM substrate",~51%
same,CYP1A1 contribution to EROD,"[1]; absence of quinidine, low (10 pM) substrate concentration",~94%
same,CYP1A2 contribution to EROD,"[1]; absence of quinidine, low substrate concentration",~4.8%
same,"Vmax for CYP1A1, EROD",[1]; [11],2800 pmol/min/mg protein
same,"Vmax for CYP1A2, EROD",[1]; [11],1900 pmol/min/mg protein and 1909 pmol/min/mg protein
same,CYP1A1 contribution to EROD,[1]; [12],~22%
same,CYP1A2 contribution to EROD,[1]; [12],70%
same,non-CYP1A contribution to EROD,[1]; [12],8%
same,EROD activity of CYP1A1 compared to CYP1A2 (times more active),Recombinant rat CYP1A1,~59 times
same,decrease of EROD activity relative to WT animals,"liver microsomes; liver microsomes from Cyp1a KO mice, untreated",22%
same,constitutive EROD activity relative to WT,liver microsomes; liver microsomes from hCYP1A1/1A2 mice,155%
same,Kd,[2]; read-out: Ks1 ± S.E.,830 ± 40 nM
same,Kd,[2]; read-out: Ks2 ± S.E.,13000 ± 1500 nM
same,EROD activity of CYP1A1 compared with CYP1A2 (times more active),recombinant human CYP1A1 [3],~2.8 times
same,Km,recombinant human CYP1A2 [4],1.2 µM
same,Kd,"recombinant human CYP1A1 [5]; read-out: Ks1 ± S.E., productive enzyme-substrate complex",90 ± 8 nM
same,Kd,"recombinant human CYP1A1 [5]; read-out: Ks2 ± S.E., inhibitory enzyme-substrate complex",11000 ± 1000 nM
same,kcat,"recombinant human CYP1A1 [5]; recombinant CYP1A1, Vmax 3300 at 71 pmol/mg protein",0.783 s⁻¹
same,Vmax,"recombinant human CYP1A1 [5]; recombinant CYP1A1, enzyme concentration 71 pmol/mg protein",3300 pmol/min/mg protein
"COc1ccc2nc3ccc(=O)cc-3oc2c1 [MR, 7-methoxyresorufin]",MROD activity of CYP1A1 compared to CYP1A2 (times less active),Recombinant rat CYP1A1,~14 times
same,MROD activity compared with WT animals,liver microsomes; hCYP1A1/1A2 mouse line liver microsomes,unchanged
same,decrease of MROD compared with WT animals,liver microsomes; liver microsomes from Cyp1a KO mice,approximately 90%
same,Kd,"recombinant human CYP1A1 [6]; read-out: Ks1 ± S.E., rCYP1A1",470 ± 70 nM
same,Kd,"recombinant human CYP1A1 [6]; read-out: Ks2 ± S.E., rCYP1A1",1300 ± 180 nM
same,Kd,[7]; read-out: Ks1 ± S.E.,960 ± 180 nM
same,Kd,[7]; read-out: Ks2 ± S.E.,3400 ± 800 nM
same,MROD activity of CYP1A1 compared with CYP1A2 (times less active),recombinant human CYP1A1 [3],~5.8 times
same,Kd,recombinant human CYP1A2 [8]; read-out: Ks1 ± S.E.,580 ± 80 nM
same,Kd,recombinant human CYP1A2 [8]; read-out: Ks2 ± S.E.,12000 ± 3500 nM
same,Non-Cyp1a contribution to MROD,[9],≤ 1.5%
same,CYP1A1 contribution to MROD,[9]; [13],~9%
same,CYP1A2 contribution to MROD,[9]; [13],~90%
same,CYP1A1 contribution to MROD,[9]; [14],less than 1%
same,CYP1A2 contribution to MROD,[9]; [14],~98%
same,CYP1A1 contribution to MROD,"[9]; absence of inhibitor, 6 μM MR",~18%
same,CYP1A2 contribution to MROD,"[9]; absence of inhibitor, 6 μM MR",~81%
same,CYP1A1 contribution to MROD,[9]; [15],49%
same,CYP1A2 contribution to MROD,[9]; [15],50%
same,"Vmax for CYP1A1, MROD",[9]; [16],1600 pmol/min/mg protein
same,"Vmax for CYP1A2, MROD",[9]; [16],2000 pmol/min/mg protein and 1969 pmol/min/mg protein
"Clc1cc2c(cc1Cl)Oc1cc(Cl)c(Cl)cc1O2 [TCDD, 2,3,7,8-tetrachlorodibenzo-p-dioxin]",increase in MROD activity,"Cyp1a/CYP1A enzymes; Cyp1a KO line, liver microsomes",4.6 fold
same,increase in EROD activity relative to untreated animals,Cyp1a/CYP1A enzymes; Cyp1a KO liver,3 fold
same,change in total P450 on TCDD treatment,Cyp1a/CYP1A enzymes; Cyp1a KO mice,no change
same,concentration of hepatic CYP1A1 estimated from EROD Vmax/kcat,Cyp1a/CYP1A enzymes; TCDD-treated hCYP1A1/1A2 mice,59 pmol/mg microsomal protein
same,CYP1A enzymes as share of total hepatic P450 content after TCDD,Cyp1a/CYP1A enzymes; WT mice,58%
same,increase of total hepatic cytochrome P450,Cyp1a/CYP1A enzymes; WT mice,2.37 fold
same,increase in EROD activity relative to untreated animals,"Cyp1a/CYP1A enzymes; WT mice, liver microsomes",~114 fold
same,increase in MROD activity,"Cyp1a/CYP1A enzymes; WT mice, liver microsomes",44 fold
same,total hepatic cytochrome P450 after TCDD,"Cyp1a/CYP1A enzymes; WT mice, liver microsomes",840 pmol/mg protein
same,CYP1A enzymes as share of total hepatic P450 content after TCDD,Cyp1a/CYP1A enzymes; hCYP1A1/1A2 mice,46%
same,increase of total hepatic cytochrome P450,Cyp1a/CYP1A enzymes; hCYP1A1/1A2 mice,1.84 fold
same,increase in EROD activity relative to untreated animals,Cyp1a/CYP1A enzymes; [17],39 fold
same,increase in MROD activity,Cyp1a/CYP1A enzymes; [17],31 fold
same,total hepatic cytochrome P450 after TCDD,Cyp1a/CYP1A enzymes; [17],632 pmol/mg protein
Nc1c2c(nc3ccccc13)CCCC2 [tacrine],fraction metabolized by Cyp1a2,"[10]; WT mice liver microsomes, eqs. 15 and 16",~0.68
same,fraction metabolized by CYP1A2,"[10]; hCYP1A1/1A2, mouse, microsomes, 1 µM, pH 7.4",~0.60
